Assay results reported in publication PMC5104769, “Concentration-Dependent Dual Mode of Zn Action at Serotonin 5-HT1A Receptors: In Vitro and In Vivo Studies” (Molecular neurobiology, 2015).

Assays:
Sprague Dawley rats [1] = assay: Lower lip retraction (LLR) in rats; assay type: in vivo, rat; details: for induction of LLR (in words): given alone: 8-OH-DPAT 1 mg/kg, Zn 2 and 5 mg/kg, WAY-100635 0.1 mg/kg
Protocol: The experiments were performed on male Albino Swiss mice (23-25 g) and Sprague Dawley rats (200-250 g) from Charles River, Germany as well as […]-flx-YFP mice from Jackson Labs, Bangor ME and the Hen lab, respectively. The animals were kept under standard laboratory conditions with respect to lighting (light phase 7:00-19:00) and temperature (19-21 °C). Food and water were freely available. Each experimental group consisted of eight to ten animals. All of the animals were experimentally naive and were used only once in each test. The experiments were performed during the light period (9:00-14:00 h). All of the procedures were conducted according to the guidelines of the National Institutes of Health Animal Care and Use Committee and were approved by the Ethics Committees of the Institute of Pharmacology, Polish Academy of Sciences in Krakow and the Animal Care Committee, University of Ottawa. […] Controls were treated with the appropriate diluent, which was indicated as VEH on the graphs and in the tables. LLR was assessed according to the method described by Berendsen et al., [20]. The rats were individually placed in cages (30×25×25 cm) and were scored three times, 15, 30 and 45 min after the administration of Zn as follows: 0=lower incisors not visible, 0.5=partly visible and 1=completely visible. Zn was administered at doses of 2 and 5 mg Zn/kg (given as Zn hydroaspartate, Farmapol, Poland). The maximum total score was 3/rat. In addition, the effects of Zn and WAY-100635 (0.1 mg/kg; […] Sigma) were tested.

Sprague Dawley rats [2] = assay: 5-HT behavioural syndrome (flat body posture, forepaw treading) in rats; assay type: in vivo, rat; details: VEH + 8-OH-DPAT 5 mg/kg
Protocol: (§1) The experiments were performed on male Albino Swiss mice (23–25 g) and Sprague Dawley rats (200–250 g) from Charles River, Germany as well as TPH2-Cre-ER^T2 x flx-5-HT1A-flx-YFP mice from Jackson Labs, Bangor ME and the Hen lab, respectively. The animals were kept under standard laboratory conditions with respect to lighting (light phase 7:00–19:00) and temperature (19–21 °C). Food and water were freely available. Each experimental group consisted of eight to ten animals. All of the animals were experimentally naive and were used only once in each test. The experiments were performed during the light period (9:00–14:00 h). All of the procedures were conducted according to the guidelines of the National Institutes of Health Animal Care and Use Committee and were approved by the Ethics Committees of the Institute of Pharmacology, Polish Academy of Sciences in Krakow and the Animal Care Committee, University of Ottawa.
Zn (all doses refer to mg Zn/kg) was given as either Zn hydroaspartate (Farmapol, Poland) or Zn chloride (Sigma-Aldrich) and was dissolved in 0.9 % NaCl and administered intraperitoneally (i.p.). 8-OH-DPAT and WAY-100635 were dissolved in aqua pro-injection and were administered subcutaneously (s.c.). Controls were treated with the appropriate diluent, which was indicated as VEH on the graphs and in the tables.
The experiments were conducted according to previously published procedure, with a modification to the ranked intensity scale. Briefly, the rats were individually placed in cages (30×25×25 cm) 5 min before tested compounds were injected. Forepaw treading (FT) and flat body posture (FBP) were scored using a ranked intensity scale, where 0=absent, 1=equivocal and 2=present. The Zn (2, 5, 7.5 and 11.5 mg Zn/kg, given as a Zn hydroaspartate)-induced behavioural syndrome was scored for each animal 3, 6, 9, 12 and 15 min after the Zn treatment. Each observation session lasted for 45 s. The maximum score, which was summed over 5 observation periods, was 10 for each symptom/rat. The effect of Zn on the behavioural syndrome induced by 8-OH-DPAT (5 mg/kg) was scored using the same scale. Zn was administered 60 min before 8-OH-DPAT, and the animals were scored 3, 6, 9, 12 and 15 min after the 8-OH-DPAT treatment.

Body temperature in mice = assay type: in vivo, mouse
Protocol: The experiments were performed on male Albino Swiss mice (23-25 g) and Sprague Dawley rats (200-250 g) from Charles River, Germany as well as […]-flx-YFP mice from Jackson Labs, Bangor ME and the Hen lab, respectively. The animals were kept under standard laboratory conditions with respect to lighting (light phase 7:00-19:00) and temperature (19-21 °C). Food and water were freely available. Each experimental group consisted of eight to ten animals. All of the animals were experimentally naive and were used only once in each test. The experiments were performed during the light period (9:00-14:00 h). All of the procedures were conducted according to the guidelines of the National Institutes of Health Animal Care and Use Committee and were approved by the Ethics Committees of the Institute of Pharmacology, Polish Academy of Sciences in Krakow and the Animal Care Committee, University of Ottawa. […] Controls were treated with the appropriate diluent, which was indicated as VEH on the graphs and in the tables. […] The results were expressed as a change in body temperature with respect to the basal body temperature, which was measured at the beginning of the experiments.

Body temperature in rats = assay type: in vivo, rat; details: 8-OH-DPAT 5 mg/kg, vs saline group
Protocol: as §1, with “Ottawa. […]” for “Ottawa.”
The effects of Zn (2, 5, 7.5 and 11.5 mg Zn/kg for rats and 2 and 5 mg/kg for mice, given as a Zn hydroaspartate), 8-OH-DPAT (5 mg/kg) and WAY-100635 (0.1mg/kg) on rectal body temperature were recorded 30 and 60 min after their acute administration. The results were expressed as a change in body temperature with respect to the basal body temperature, which was measured at the beginning of the experiments.

Sprague Dawley rats [3] = assay: Forced swim test (FST) in rats; assay type: in vivo, rat
Protocol: The test was carried out according to the method described previously [10]. On day one of the experiment, the animals were individually placed in plexiglass cylinders (40 cm in height, 18 cm in diameter), containing 25 cm of water maintained at 24–25 °C for a 15-min habituation period. After the rats were removed from the water, they were again placed in their home cages. On the second day, the rats were again placed in the cylinders, and the total duration of immobility was measured for a 5-min test period. Zn (1 or 2 mg Zn/ kg, given as Zn hydroaspartate) and 8-OH-DPAT (0.1 or 0.3 mg/kg) were administered alone or jointly 30 min before the test. WAY-100635 (0.1 mg/kg) was administered 15 min before the Zn treatment.

[4] = biological target: T1, human 5-HT1AR stably expressed in HEK293 cells (Homo sapiens, UniProt P08908); assay: Saturation binding of [3H]-8-OH-DPAT in the absence and presence of Zn; details: saturation binding
T1 construct: The full-length human 5HTR1A complementary DNA (cDNA); membranes prepared from the cells
T1 sequence (P08908 1-422): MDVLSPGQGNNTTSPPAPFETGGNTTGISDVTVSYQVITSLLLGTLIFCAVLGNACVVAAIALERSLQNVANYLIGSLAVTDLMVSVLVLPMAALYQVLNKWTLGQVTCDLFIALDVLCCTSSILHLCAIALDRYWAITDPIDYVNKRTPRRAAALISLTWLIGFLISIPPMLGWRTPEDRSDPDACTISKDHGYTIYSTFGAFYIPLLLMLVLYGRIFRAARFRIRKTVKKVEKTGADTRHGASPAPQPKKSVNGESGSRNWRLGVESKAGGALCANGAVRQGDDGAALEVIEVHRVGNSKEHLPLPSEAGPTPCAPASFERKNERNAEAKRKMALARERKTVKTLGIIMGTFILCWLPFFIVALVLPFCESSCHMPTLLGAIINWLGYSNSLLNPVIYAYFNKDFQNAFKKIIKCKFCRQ
Protocol: The full-length human 5HTR1A complementary DNA (cDNA), which was cloned into the mammalian expression vector pcDNA3.1(+), was obtained from the Missouri S&T cDNA Resource Center (www.cdna.org). The receptor cDNA was stably transfected into human embryonic kidney cells (HEK293, ATCC) with the use of Lipofectamine 2000 (Invitrogen).
Cell pellets were thawed and homogenized in 20 volumes of 50 mM Tris–HCl buffer (pH 7.7) containing 0.1 mM EDTA and 10 mM MgCl2, using an Ultra Turrax tissue homogenizer. The pellets were then centrifuged twice at 35,000g for 20 min at 4 °C, with incubation for 15 min at 37 °C in between centrifugations. Membranes were aliquoted in tubes. Membrane protein concentrations were determined using the Pierce™ Coomassie (Bradford) Protein Assay Kit, with bovine serum albumin (BSA) as a standard.
The incubation buffer consisted of 50 mM Tris–HCl (pH 7.7), 10 mM MgCl2, 10 mM pargyline and 0.1 % ascorbic acid. Radioligand binding assays were performed by incubating 30 μg of protein of the membrane suspension in 96-well microtitre plates for 60 min at room temperature with shaking, in a total volume of 200 μl. The binding reactions were stopped by filtration through GF/C Unifilter plates using a harvester (PerkinElmer). The plate filters were dried, and 20 μl of Ultima Gold MV (PerkinElmer) was added. Radioactivity was measured using a MicroBeta TriLux counter (PerkinElmer).
All experiments were performed in triplicate, and the results were obtained from at least three independent experiments. The data are expressed as the mean±S.D. (standard deviation). The experimental data were analysed using GraphPad Prism 5.1 for Windows (GraphPad Software, San Diego California USA, www.graphpad.com).

Row | Structure (SMILES) | Mean LLR score (B) 8-OH-DPAT 1 mg/kg (Sprague Dawley rats [1]; VEH pretreatment + 8-OH-DPAT 1 mg/kg) | induction of LLR (in words) (Sprague Dawley rats [1]) | behavioural score FBP (B) 8-OH-DPAT (Sprague Dawley rats [2]) | behavioural score FT (B) 8-OH-DPAT (Sprague Dawley rats [2]) | change in body temperature (Body temperature in mice; 8-OH-DPAT 5 mg/kg, vs saline group) | change in body temperature (Body temperature in rats) | immobility time in the FST (Sprague Dawley rats [3]; 8-OH-DPAT 0.1 mg/kg) | immobility time in the FST (Sprague Dawley rats [3]; 8-OH-DPAT 0.3 mg/kg) | Mean LLR score (B) 8-OH-DPAT 1 mg/kg (Sprague Dawley rats [1]; WAY 100635 0.1 mg/kg 45 min before 8-OH-DPAT 1 mg/kg) | Mean LLR score (A) VEH (Sprague Dawley rats [1]; WAY 100635 0.1 mg/kg s.c. alone, max score 3/rat) | effect on LLR induced by 8-OH-DPAT (in words) (Sprague Dawley rats [1]; Zn 2 and 5 mg/kg or WAY-100635 0.1 mg/kg before 8-OH-DPAT 1 mg/kg) | effect of pretreatment on Zn-induced decrease in body temperature (Body temperature in mice; WAY-100635 0.1 mg/kg s.c. 15 min before Zn) | effect on Zn-induced decrease in immobility time (Sprague Dawley rats [3]; WAY-100635 0.1 mg/kg 15 min before Zn) | behaviour in the FST (Sprague Dawley rats [3]; WAY-100635 0.1 mg/kg given alone) | Bmax of [3H]8-OH-DPAT ([4]; Zn2+ 0 μM) [pM/mg prot] | Bmax of [3H]8-OH-DPAT ([4]; Zn2+ 10 μM) [pM/mg prot] | Bmax of [3H]8-OH-DPAT ([4]; Zn2+ 10 μM, listed as [^3H]8-OH-DPAT) [pM/mg prot] | Bmax of [3H]8-OH-DPAT ([4]; Zn2+ 100 μM) [pM/mg prot] | Bmax of [3H]8-OH-DPAT ([4]; Zn2+ 500 μM) [pM/mg prot] | Bmax of [3H]8-OH-DPAT ([4]; Zn2+ 1000 μM) [pM/mg prot]
1 | CCCN(CCC)C1CCc2cccc(O)c2C1 (stereo not drawn) [8-OH-DPAT, 8-Hydroxy-2-(di-n-propylamino)tetralin, reference compound] | 2.25±0.46 | induced LLR | 7.83±0.7 | 7.5±0.6 | significant decrease in body temperature | significant decrease in body temperature | not 0.1 mg/kg (p>0.05) decreased the immobility time | decreased the immobility time | – | – | – | – | – | – | – | – | – | – | – | –
2 | COc1ccccc1N1CCN(CCN(C(=O)C2CCCCC2)c2ccccn2)CC1 [WAY-100635, N-[2[4-(2-methoxyphenyl)-1-piperazinyl]ethyl]-N-(2-pyridyl)cyclohexanecarboxamide, reference compound] | – | did not evoke LLR | – | – | – | – | – | – | 0.67±0.76 | 0.0±0.0 | blocked the LLR induced by 8-OH-DPAT | abolished the effect induced by Zn | antagonized the Zn-induced decrease in the immobility time | did not change the behaviour of the animals | – | – | – | – | – | –
3 | CCCN(CCC)C1CCc2cccc(O)c2C1 (stereo not drawn) [[^3H]-8-OH-DPAT] | – | – | – | – | – | – | – | – | – | – | – | – | – | – | 4.5±0.3 | 5.8±0.7 | 5.8±0.7 | 6.2±2.0 | 4.7±0.7 | 4.0±0.6
